# Test results taken from patent publication EP1756125B1, “1,1,3,3,3-[…]-1-OXO/THIO-1LAMBDA5,3LAMBDA5-DIPHOSPHAZ-2-ENES, METHOD FOR PRODUCING THEM AND THEIR USE AS AGENTS FOR […] […] […] UREA” (SKW STICK[…] GmbH, priority 2004, dated 2005).
# Test system: Urease
# Assay: Test for urease-inhibiting effect in soil (NH3-N release from urea, closed vessel with ammonia trap)
# Assay type: biochemical
# Conditions: soil at 40 % of maximum water capacity, 50 mg urea, t50 = day after start at which inhibition of urea hydrolysis is still 50 %
# Protocol: 30 g auf 40 % der maximalen Wasserkapazität eingestellter Boden werden mit 1 ml Harnstofflösung entsprechend 50 mg Harnstoff versetzt. Gleichzeitig erfolgt die Applikation des Wirkstoffes, vorzugsweise in der Harnstofflösung gelöst. Die Konzentrationsangaben für die einzelnen geprüften Wirkstoffe in der nachfolgenden Tabelle beziehen sich auf die im Test verwendete Menge an Carbamidstickstoff. Der Boden, auf dessen Oberfläche die Harnstofflösung (mit und ohne Wirkstoff) aufgebracht wird, befindet sich in einem luftdicht verschlossenen Gefäß, in das gleichzeitig eine Vorlage eingebracht wird, die den aus dem Harnstoff freigesetzten Ammoniak als Ammonium auffängt. Durch tägliches Überspülen der Vorlage und Analyse der enthaltenen NH4-N-Mengen wird die NH3-N-Freisetzung aus dem Harnstoff bestimmt.
# Aus der Summation der Ammonium-Mengen in der Vorlage wird die prozentuale Hemmung der Harnstoff-Hydrolyse in Abhängigkeit von der Zeit berechnet bzw. aus diesen Werten der t50-Wert rechnerisch ermittelt.
# Als t50-Wert wird der Zeitpunkt in Tagen nach Versuchsbeginn verstanden, zu dem die Hemmung der Harnstoff-Hydrolyse noch 50 % beträgt.
SMILES,"t50-Wert (Konz. 0,1 % HS-N-bez.)","t50-Wert (Konz. 0,5 % HS-N-bez.)"
"CCCNP(N)(=NP(N)(N)=S)NCCC [Verbindung 3, 3,3-Bis(propylamino)-1,1,3,-triamino-1-thio-1λ^5,3λ^5-diphosphaz-2-en]","10,4 d",–
"CCCCNP(N)(=NP(N)(N)=S)NCCCC [Verbindung 1, 3,3-Bis(butylamino)-1,1,3,-triamino-1-thio-1λ^5,3λ^5-diphosphaz-2-en]","9,4 d",–
"CCN(CC)P(N)(N)=NP(N)(N)=S [Verbindung 7, 3-Diethylamino-1,1,3,3-tetraamino-1-thio-1λ^5,3λ^5-diphosphaz-2-en]",–,"7,9 d"
"CCCCNP(N)(N)=NP(N)(N)=S [Verbindung 5, 3-Butylamino-1,1,3,3-tetraamino-1-thio-1λ^5,3λ^5-diphosphaz-2-en]","14,5 d",–
"CCCNP(N)(=NP(N)(N)=O)NCCC [Verbindung 4, 3,3-Bis(propylamino)-1,1,3,-triamino-1-oxo-1λ^5,3λ^5-diphosphaz-2-en]","9,6 d",–
"CCCCNP(N)(=NP(N)(N)=O)NCCCC [Verbindung 2, 3,3-Bis(butylamino)-1,1,3,-triamino-1-oxo-1λ^5,3λ^5-diphosphaz-2-en]","8,8 d",–
"CCCNP(N)(N)=NP(N)(N)=S [Verbindung 6, 3-Propylamino-1,1,3,3-tetraamino-1-thio-1λ^5,3λ^5-diphosphaz-2-en]","14,2 d",–
